Test results published in PMC8835841, “Novel NK1R-Targeted ^68Ga-/^177Lu-Radioconjugates with Potential Application against Glioblastoma Multiforme: Preliminary Exploration of Structure–Activity Relationships” (International Journal of Molecular Sciences, 2022).
Several values for one entry are separate records, joined by “and”; a condition that tells them apart may be missing. Identical values can stand only once. Like-named read-outs stand apart in the source and are kept apart here. Square brackets hold non-standard residues; d marks the D form. Peptide text beside a SMILES is read from it. * marks the point of attachment. DOTA = O=C(O)CN1CCN(CC(=O)O)CCN(CC(=O)*)CCN(CC(=O)O)CC1; Met(O2) = CS(=O)(=O)CC[C@H](N)C(=O)O; 2Thi = N[C@@H](Cc1cccs1)C(=O)O

What was measured:
hNK1R Q165A mutant = conditions: read-out: IC50 Q165A mutant hNK1R; Gln165Ala mutation; cited from earlier work
hNK1R His197Ala mutation = conditions: versus wild type; cited from earlier work
hNK1R His197Phe mutation = conditions: versus wild type; cited from earlier work
physchem = assay type: physicochemical
Method: A lipophilicity study was also performed right after the SPE method purification and ethanol evaporation. For each DOTA radioconjugate, the lipophilicity value was estimated as the logarithm of the distribution coefficient (D) based on the ratio of the radioactivity of the organic phase to the radioactivity of the aqueous phase in the n-octanol/PBS (pH 7.40) system. Simultaneously, the stability of the studied radioconjugate during the experiment was verified through the HPLC analysis of the aqueous phase.
A solution of isolated radioconjugate (approximately 0.5 MBq for ^177Lu-radioconjugates or 5 MBq for ^68Ga-radioconjugates) in 500 µL of 0.1 M PBS buffer (pH 7.40) and 500 µL of n-octanol was vigorously stirred and centrifuged (13,500 rpm for 5 min) to separate the immiscible phases. Then, the radioactivity of samples from both phases were measured using a well-type NaI(Tl) detector. The distribution coefficient, D, was calculated dividing the radioactivity of the radioconjugate in the organic phase to that in the aqueous phase. Each experiment was performed in triplicate and averaged. In parallel, the aqueous phases were analysed by HPLC to confirm the stability of studied radioconjugate during the experiment period. The lipophilicity value of each radioconjugates was expressed as the logarithm of its D value.

hNK1R [1] = molecular target: T1, hNK1R (Homo sapiens, UniProt P25103); assay: Saturation binding assay of 177Lu-radioconjugates on CHO-NK1R cells; conditions: for Kd: read-out: Kd ± SD
T1 construct: expressed in transfected cells; host or cells: CHO-K1 (hNK1-CHO), gift from Dr. Attila Keresztes and Dr. John M. Streicher
Method: The saturation binding studies of ^177Lu-radioconjugates were performed using transfected CHO-NK1R cell line, and all radioconjugates were obtained according to the common labelling protocol given above with the same specific activity. In brief, 10^5 cells per well were seeded into 24-well plates and incubated 24 h before the experiment. […] After that time, the assay medium was collected into plastic tubes and cells were washed twice with cold Dulbecco’s PBS. Subsequently, cells were lysed using 1M NaOH and collected into plastic tubes for radioactivity measurement. The radioactivity of collected medium and lysed cells was measured using a Wizard^2 2-Detector Gamma Counter (PerkinElmer, Waltham, MA, USA) with the energy window of 50–500 keV. The study data came from three independent experiments carried out in duplicate, while the results, presented as the Kd and BMAX with SD, were calculated using a total and nonspecific binding (one site) nonlinear regression curve fit (GraphPad Prism version 8.0, GraphPad, San Diego, CA, USA).

rNK1R = molecular target: T2, rNK1R (Rattus norvegicus, UniProt P14600); assay: Competitive radioligand binding assay, rat brain homogenates, [3H]-(Sar9,Met(O2)11)-Substance P; conditions: mean of three independent experiments in duplicate unless stated; for IC50: read-out: IC50 (Mean ± SD) rNK1R
T2 construct: As a source of the receptor proteins, homogenates obtained from rat brains; from tissue; host or cells: rat brain homogenate
Method: (§1) The binding affinity of the tested compounds for human and rat NK1R was determined in competitive radioligand binding assays following the method previously described. As a source of the receptor proteins, homogenates obtained from rat brains (obtained as described in Ref [30]) or homogenates made from hNK1-CHO cells were used. […] The final reaction volumes were 250 μL and 1 mL, for the human and rat NK1R determinations, respectively. […] The binding reaction mixtures were incubated in a shaking water bath at 25 °C for 60 min. The reaction was terminated by rapid filtration through Whatman GF/B filter (Gaithersburg, MD) presoaked in 0.5% polyethyleneimine and washed three times with 2 mL of cold saline. The filters were placed in 24-well plates and immersed in a Betaplate Scint scintillation solution (Perkin Elmer, Waltham, MA, USA). The filter-bound radioactivity was determined by scintillation counter MicroBeta LS, Trilux (PerkinElmer, Waltham, MA, USA).
(§2) The displacement curves were drawn and the mean IC50 values were determined with standard deviations (GraphPad Prism version 8.0, San Diego, CA, USA). At least three independent experiments (carried out in duplicate) were performed.

hNK1R [2] = molecular target: T1, hNK1R; assay: Competitive radioligand binding assay, hNK1-CHO cell homogenates, [3H]-(Sar9,Met(O2)11)-Substance P; conditions: hNK1-CHO cell homogenates; mean of three independent experiments in duplicate unless stated; read-out: IC50 (Mean ± SD) hNK1R
Method: The CHO-K1 cells with a stable overexpression of the human NK1 receptor, denoted further on as hNK1-CHO cells, were obtained as a gift from Dr. Attila Keresztes and Dr. John M. Streicher. The cells were maintained in a humidified atmosphere with 5% CO2 at 37 °C, in Ham’s F12 medium (Corning, Corning, NY, USA) supplemented with 10% Foetal Bovine Serum (CytoGen, Wetzlar, Germany) and 400 μg/mL G418 (Corning, Corning, NY, USA).
When the cells reached approximately 90% confluence, they were harvested by treatment with 0.05% trypsin/EDTA (Corning, Corning, NY, USA). After centrifugation at 1500 rpm for 5 min, the cells were homogenized in a glass tissue homogenizer in ice-cold 50 mM Tris-HCl buffer (pH 7.4) with 5 mM MnCl2. The preparation was collected by centrifugation at 13,000 rpm for 25 min at 4 °C, and then the pellet was suspended in 50 mM Tris-HCl buffer. The homogenates were stored at −80 °C for later use. The BCA assay (Thermo Scientific, Waltham, MA, USA) was used to determine the protein concentration in the homogenates.
as §1, §2

[3] = pH 7.4, logD7.4 (Mean ± SD) 68Ga-
[4] = pH 7.4, logD7.4 (Mean ± SD) 177Lu-
[5] = ratio to [177Lu]Lu-DOTA-[Thi8,Met(O2)11]SP

T1 sequence (P25103 whole entry): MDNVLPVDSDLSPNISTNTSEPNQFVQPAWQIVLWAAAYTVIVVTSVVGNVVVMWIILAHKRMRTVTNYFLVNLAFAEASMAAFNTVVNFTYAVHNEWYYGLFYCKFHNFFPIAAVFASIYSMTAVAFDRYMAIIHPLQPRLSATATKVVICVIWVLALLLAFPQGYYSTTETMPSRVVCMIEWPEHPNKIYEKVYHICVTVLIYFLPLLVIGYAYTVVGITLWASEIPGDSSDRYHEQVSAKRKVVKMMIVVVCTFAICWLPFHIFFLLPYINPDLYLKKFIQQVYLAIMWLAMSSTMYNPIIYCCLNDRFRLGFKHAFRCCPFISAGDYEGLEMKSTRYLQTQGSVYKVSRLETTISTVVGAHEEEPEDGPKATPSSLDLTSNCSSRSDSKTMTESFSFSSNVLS
T2 sequence (P14600 whole entry): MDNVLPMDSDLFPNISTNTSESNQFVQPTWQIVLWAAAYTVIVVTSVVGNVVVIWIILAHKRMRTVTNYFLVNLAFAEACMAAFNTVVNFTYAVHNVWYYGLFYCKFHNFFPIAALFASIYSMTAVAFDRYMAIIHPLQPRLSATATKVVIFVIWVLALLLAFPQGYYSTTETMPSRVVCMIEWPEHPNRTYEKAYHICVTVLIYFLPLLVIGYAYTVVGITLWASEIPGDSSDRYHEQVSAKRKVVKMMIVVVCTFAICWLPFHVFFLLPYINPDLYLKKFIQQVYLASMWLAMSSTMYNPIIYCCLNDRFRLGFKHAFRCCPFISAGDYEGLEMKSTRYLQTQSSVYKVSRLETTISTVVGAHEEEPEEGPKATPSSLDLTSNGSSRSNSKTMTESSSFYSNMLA

For CC(=O)N[C@@H](Cc1c[nH]c2ccccc12)C(=O)OCc1cc(C(F)(F)F)cc(C(F)(F)F)c1 [Compound 1c, 3,5-bis(trifluoromethyl)benzyl acetyl-L-tryptophanate], the IC50 (hNK1R Q165A mutant) is listed as 0.0081 µM, the “decrease of affinity with His197Ala mutation” value (hNK1R His197Ala mutation) is listed as “ten-fold” and the “effect of His197Phe mutation on affinity” value (hNK1R His197Phe mutation) is listed as “no effect”.
In the case of C[C@@H](NC(=O)CN1CCN(CC(=O)O)CCN(CC(=O)O)CCN(CC(=O)O)CC1)C(=O)N[C@@H](Cc1c[nH]c2ccccc12)C(=O)OCc1cc(C(F)(F)F)cc(C(F)(F)F)c1 [[^68Ga]Ga-2d, metal not drawn], the logD (physchem; [3]) is reported as -0.06 ± 0.02.
For C[C@@H](NC(=O)CN1CCN(CC(=O)O)CCN(CC(=O)O)CCN(CC(=O)O)CC1)C(=O)N[C@@H](Cc1c[nH]c2ccccc12)C(=O)OCc1cc(C(F)(F)F)cc(C(F)(F)F)c1 [[^177Lu]Lu-2d, metal not drawn], the logD (physchem; [4]) was 0.704 ± 0.005.
Work on CC(C)C[C@H](NC(=O)CNC(=O)[C@H](Cc1cccs1)NC(=O)[C@H](Cc1ccccc1)NC(=O)[C@H](CCC(N)=O)NC(=O)[C@H](CCC(N)=O)NC(=O)[C@@H]1CCCN1C(=O)[C@H](CCCCN)NC(=O)[C@@H]1CCCN1C(=O)[C@H](CCCNC(=N)N)NC(=O)CN1CCN(CC(=O)O)CCN(CC(=O)O)CCN(CC(=O)O)CC1)C(=O)N[C@@H](CCS(C)(=O)=O)C(N)=O [[^177Lu]Lu-DOTA-[Thi^8,Met(O2)^11]SP, metal not drawn, reference compound] ({DOTA}-RPKPQQF[2Thi]GL[Met(O2)]-NH2; N-terminus and C-terminus assumed) yielded a Kd (hNK1R [1]) of 0.00615 ± 0.00064 µM.
O=C(O)CN1CCN(CC(=O)O)CCN(CC(=O)NCCCCCC(=O)NCCCCCC(=O)N[C@@H](Cc2c[nH]c3ccccc23)C(=O)OCc2cc(C(F)(F)F)cc(C(F)(F)F)c2)CCN(CC(=O)O)CC1 [[^68Ga]Ga-5d, metal not drawn] showed a logD (physchem; [3]) of -0.466 ± 0.016.
With O=C(O)CN1CCN(CC(=O)O)CCN(CC(=O)NCCCCCC(=O)N[C@@H](Cc2c[nH]c3ccccc23)C(=O)OCc2cc(C(F)(F)F)cc(C(F)(F)F)c2)CCN(CC(=O)O)CC1 [[^68Ga]Ga-4d, metal not drawn] the logD (physchem; [3]) was 0.071 ± 0.023.
In the case of O=C(O)CN1CCN(CC(=O)O)CCN(CC(=O)N[C@@H](Cc2c[nH]c3ccccc23)C(=O)OCc2cc(C(F)(F)F)cc(C(F)(F)F)c2)CCN(CC(=O)O)CC1 [[^177Lu]Lu-1d, metal not drawn], the “BMAX ± SD” value (hNK1R [1]; CHO-NK1R cells, 60 min at 37 °C) is reported as 0.762 nM and 0.762 ± 0.046 nM, the Kd (hNK1R [1]; CHO-NK1R cells, 60 min at 37 °C, aprepitant as blocker) is reported as 0.00698 ± 0.00069 µM and the “BMAX Ratio to SP” value (hNK1R [1]; [5]) is reported as 0.82. For the same compound, the “Kd Ratio to SP” value (hNK1R [1]; [5]) was 1.13 and the logD (physchem; [4]) was 0.4 ± 0.004.
For C[C@@H](NC(=O)CN1CCN(CC(=O)O)CCN(CC(=O)O)CCN(CC(=O)O)CC1)C(=O)N[C@H](C)C(=O)N[C@@H](Cc1c[nH]c2ccccc12)C(=O)OCc1cc(C(F)(F)F)cc(C(F)(F)F)c1 [[^177Lu]Lu-3d, metal not drawn], the logD (physchem; [4]) was 0.619 ± 0.007.
Work on O=C(O)CN1CCN(CC(=O)O)CCN(CC(=O)NCCCCCC(=O)N[C@@H](Cc2c[nH]c3ccccc23)C(=O)OCc2cc(C(F)(F)F)cc(C(F)(F)F)c2)CCN(CC(=O)O)CC1 [[^177Lu]Lu-4d, metal not drawn] yielded a logD (physchem; [4]) of 0.866 ± 0.019.
Compound NCCCCCC(=O)N[C@@H](Cc1c[nH]c2ccccc12)C(=O)OCc1cc(C(F)(F)F)cc(C(F)(F)F)c1 [Compound 4b, (S)-6-((1-((3,5-bis(trifluoromethyl)benzyl)oxy)-3-(1H-indol-3-yl)-1-oxopropan-2-yl)amino)-6-oxohexan-1-aminium 2,2,2-trifluoroacetate] has an IC50 (rNK1R) of 1.4 ± 0.319 µM and an IC50 (hNK1R [2]) of 0.0354 ± 0.0236 µM.
With CC(=O)NCCCCCC(=O)NCCCCCC(=O)N[C@@H](Cc1c[nH]c2ccccc12)C(=O)OCc1cc(C(F)(F)F)cc(C(F)(F)F)c1 [Compound 5c, 3,5-bis(trifluoromethyl)benzyl (6-(6-acetamidohexanamido)hexanoyl)-L-tryptophanate] the “IC50 (Mean ± SD) rNK1R” value (rNK1R) was “submicromolar”, the IC50 (rNK1R) was 0.655 ± 0.12 µM and the IC50 (hNK1R [2]) was 0.0143 ± 0.0052 µM.
For C[C@@H](N)C(=O)N[C@H](C)C(=O)N[C@@H](Cc1c[nH]c2ccccc12)C(=O)OCc1cc(C(F)(F)F)cc(C(F)(F)F)c1 [Compound 3b, (R)-1-(((R)-1-(((S)-1-((3,5-bis(trifluoromethyl)benzyl)oxy)-3-(1H-indol-3-yl)-1-oxopropan-2-yl)amino)-1-oxopropan-2-yl)amino)-1-oxopropan-2-aminium 2,2,2-trifluoroacetate], the IC50 (rNK1R) was 4.01 ± 1.37 µM and the IC50 (hNK1R [2]) was 0.0808 ± 0.0597 µM.
CC(=O)NCCCCCC(=O)N[C@@H](Cc1c[nH]c2ccccc12)C(=O)OCc1cc(C(F)(F)F)cc(C(F)(F)F)c1 [Compound 4c, 3,5-bis(trifluoromethyl)benzyl (6-acetamidohexanoyl)-L-tryptophanate] showed an IC50 (rNK1R) of 1.95 ± 0.641 µM and an IC50 (hNK1R [2]) of 0.0831 ± 0.0693 µM.
O=C(O)CN1CCN(CC(=O)O)CCN(CC(=O)N[C@@H](Cc2c[nH]c3ccccc23)C(=O)OCc2cc(C(F)(F)F)cc(C(F)(F)F)c2)CCN(CC(=O)O)CC1 [[^68Ga]Ga-1d, metal not drawn] showed a logD (physchem; [3]) of -0.085 ± 0.015.
Work on C[C@@H](NC(=O)CN1CCN(CC(=O)O)CCN(CC(=O)O)CCN(CC(=O)O)CC1)C(=O)N[C@H](C)C(=O)N[C@@H](Cc1c[nH]c2ccccc12)C(=O)OCc1cc(C(F)(F)F)cc(C(F)(F)F)c1 [[^68Ga]Ga-3d, metal not drawn] yielded a logD (physchem; [3]) of -0.259 ± 0.017.
With O=C(O)CN1CCN(CC(=O)O)CCN(CC(=O)NCCCCCC(=O)NCCCCCC(=O)N[C@@H](Cc2c[nH]c3ccccc23)C(=O)OCc2cc(C(F)(F)F)cc(C(F)(F)F)c2)CCN(CC(=O)O)CC1 [[^177Lu]Lu-5d, metal not drawn] the logD (physchem; [4]) was 0.294 ± 0.013.
In the case of CC(=O)N[C@H](C)C(=O)N[C@H](C)C(=O)N[C@@H](Cc1c[nH]c2ccccc12)C(=O)OCc1cc(C(F)(F)F)cc(C(F)(F)F)c1 [Compound 3c, 3,5-bis(trifluoromethyl)benzyl acetyl-D-alanyl-D-alanyl-L-tryptophanate], the IC50 (rNK1R) is reported as 1.14 ± 0.289 µM and the IC50 (hNK1R [2]) is reported as 0.0135 ± 0.0121 µM.
